Measured values reported in PubChem BioAssay (NCI).
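Cells were grown in 96-well plates and exposed to each compound for 48 hours at five concentrations; endpoints were interpolated linearly between bracketing concentrations, or set to the highest concentration if not reached. The concentration for full growth arrest is given as TGI.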

Experiments:
Experiment in all cases: NCI-60 cell line screen, 48 h
786-0 renal = tested on: 786-0 renal
A498 renal = tested on: A498 renal
A549 NSCLC = tested on: A549 NSCLC
ACHN renal = tested on: ACHN renal
BT-549 breast = tested on: BT-549 breast
CAKI-1 renal = tested on: CAKI-1 renal
CCRF-CEM leukemia = tested on: CCRF-CEM leukemia
COLO 205 colon = tested on: COLO 205 colon
DU-145 prostate = tested on: DU-145 prostate
EKVX NSCLC = tested on: EKVX NSCLC
HCC-2998 colon = tested on: HCC-2998 colon
HCT-116 colon = tested on: HCT-116 colon
HCT-15 colon = tested on: HCT-15 colon
HL-60(TB) leukemia = tested on: HL-60(TB) leukemia
HOP-62 NSCLC = tested on: HOP-62 NSCLC
HOP-92 NSCLC = tested on: HOP-92 NSCLC
HS 578T breast = tested on: HS 578T breast
HT29 colon = tested on: HT29 colon
IGROV1 ovarian = tested on: IGROV1 ovarian
K-562 leukemia = tested on: K-562 leukemia
KM12 colon = tested on: KM12 colon
LOX IMVI melanoma = tested on: LOX IMVI melanoma
M14 melanoma = tested on: M14 melanoma
MALME-3M melanoma = tested on: MALME-3M melanoma
MCF7 breast = tested on: MCF7 breast
MDA-MB-231 breast = tested on: MDA-MB-231 breast
MDA-MB-435 = tested on: MDA-MB-435
MDA-N = tested on: MDA-N
MOLT-4 leukemia = tested on: MOLT-4 leukemia
NCI-H226 lung = tested on: NCI-H226 lung
NCI-H23 lung = tested on: NCI-H23 lung
NCI-H460 lung = tested on: NCI-H460 lung
NCI-H522 lung = tested on: NCI-H522 lung
NCI/ADR-RES ovarian = tested on: NCI/ADR-RES ovarian
OVCAR-3 ovarian = tested on: OVCAR-3 ovarian
OVCAR-4 ovarian = tested on: OVCAR-4 ovarian
OVCAR-5 ovarian = tested on: OVCAR-5 ovarian
OVCAR-8 ovarian = tested on: OVCAR-8 ovarian
PC-3 prostate = tested on: PC-3 prostate
RPMI-8226 leukemia = tested on: RPMI-8226 leukemia
RXF 393 renal = tested on: RXF 393 renal
SF-268 CNS = tested on: SF-268 CNS
SF-295 CNS = tested on: SF-295 CNS
SF-539 CNS = tested on: SF-539 CNS
SK-MEL-2 melanoma = tested on: SK-MEL-2 melanoma
SK-MEL-28 melanoma = tested on: SK-MEL-28 melanoma
SK-MEL-5 melanoma = tested on: SK-MEL-5 melanoma
SK-OV-3 ovarian = tested on: SK-OV-3 ovarian
SN12C renal = tested on: SN12C renal
SNB-19 CNS = tested on: SNB-19 CNS
SNB-75 CNS = tested on: SNB-75 CNS
SR leukemia = tested on: SR leukemia
SW-620 colon = tested on: SW-620 colon
T-47D breast = tested on: T-47D breast
TK-10 renal = tested on: TK-10 renal
U251 CNS = tested on: U251 CNS
UACC-257 melanoma = tested on: UACC-257 melanoma
UACC-62 melanoma = tested on: UACC-62 melanoma
UO-31 renal = tested on: UO-31 renal

Which results are given for `COC(=O)CN1Cc2cc(C)cc(c2O)CN(CC(=O)OC)Cc2cc(C)cc(c2O)CN(CC(=O)OC)Cc2cc(C)cc(c2O)C1`?
TGI (786-0 renal): > 100 µM; TGI (A498 renal): > 84.3 µM; TGI (A549 NSCLC): > 100 µM; TGI (ACHN renal): > 100 µM; TGI (BT-549 breast): > 100 µM; TGI (CAKI-1 renal): > 100 µM; TGI (CCRF-CEM leukemia): > 100 µM; TGI (COLO 205 colon): > 100 µM; TGI (DU-145 prostate): > 100 µM; TGI (EKVX NSCLC): > 100 µM; TGI (HCC-2998 colon): > 100 µM; TGI (HCT-116 colon): > 100 µM; TGI (HCT-15 colon): > 100 µM; TGI (HL-60(TB) leukemia): > 100 µM; TGI (HOP-62 NSCLC): > 100 µM; TGI (HOP-92 NSCLC): > 100 µM; TGI (HS 578T breast): > 100 µM; TGI (HT29 colon): > 100 µM; TGI (IGROV1 ovarian): > 100 µM; TGI (K-562 leukemia): > 100 µM; TGI (KM12 colon): > 100 µM; TGI (LOX IMVI melanoma): > 100 µM; TGI (M14 melanoma): > 86.6 µM; TGI (MALME-3M melanoma): > 100 µM; TGI (MCF7 breast): > 96.3 µM; TGI (MDA-MB-231 breast): > 77.2 µM; TGI (MDA-MB-435): > 100 µM; TGI (MDA-N): > 100 µM; TGI (MOLT-4 leukemia): > 100 µM; TGI (NCI-H226 lung): > 61.3 µM; TGI (NCI-H23 lung): > 100 µM; TGI (NCI-H460 lung): > 100 µM; TGI (NCI-H522 lung): > 100 µM; TGI (NCI/ADR-RES ovarian): > 100 µM; TGI (OVCAR-3 ovarian): > 100 µM; TGI (OVCAR-4 ovarian): > 100 µM; TGI (OVCAR-5 ovarian): > 100 µM; TGI (OVCAR-8 ovarian): > 100 µM; TGI (PC-3 prostate): > 73.7 µM; TGI (RPMI-8226 leukemia): > 100 µM; TGI (RXF 393 renal): > 75 µM; TGI (SF-268 CNS): > 100 µM; TGI (SF-295 CNS): > 100 µM; TGI (SF-539 CNS): > 100 µM; TGI (SK-MEL-2 melanoma): > 77.1 µM; TGI (SK-MEL-28 melanoma): > 100 µM; TGI (SK-MEL-5 melanoma): > 100 µM; TGI (SK-OV-3 ovarian): > 100 µM; TGI (SN12C renal): > 100 µM; TGI (SNB-19 CNS): > 100 µM; TGI (SNB-75 CNS): > 74.7 µM; TGI (SR leukemia): > 100 µM; TGI (SW-620 colon): > 100 µM; TGI (T-47D breast): > 68.5 µM; TGI (TK-10 renal): > 100 µM; TGI (U251 CNS): > 100 µM; TGI (UACC-257 melanoma): > 100 µM; TGI (UACC-62 melanoma): > 100 µM; TGI (UO-31 renal): > 100 µM

What does the source list for `CN1c2ccc(O)c(O)c2-c2cc(O)cc3c2C1CCC3` (stereo not drawn)?
TGI (786-0 renal): 35.5 µM; TGI (A498 renal): > 100 µM; TGI (A549 NSCLC): > 74.1 µM; TGI (ACHN renal): 31.3 µM; TGI (BT-549 breast): 39.8 µM; TGI (CAKI-1 renal): 48.9 µM; TGI (CCRF-CEM leukemia): 9.61 µM; TGI (COLO 205 colon): 47.5 µM; TGI (DU-145 prostate): 30.6 µM; TGI (EKVX NSCLC): 46.9 µM; TGI (HCC-2998 colon): 49.1 µM; TGI (HCT-116 colon): 47.2 µM; TGI (HCT-15 colon): 59.4 µM; TGI (HL-60(TB) leukemia): 39.2 µM; TGI (HOP-62 NSCLC): 32.6 µM; TGI (HOP-92 NSCLC): 33.3 µM; TGI (HS 578T breast): > 72.9 µM; TGI (HT29 colon): 66.2 µM; TGI (IGROV1 ovarian): 27.9 µM; TGI (K-562 leukemia): 40.8 µM; TGI (KM12 colon): > 61 µM; TGI (LOX IMVI melanoma): 26.3 µM; TGI (M14 melanoma): 34.8 µM; TGI (MALME-3M melanoma): 31.3 µM; TGI (MCF7 breast): 41.5 µM; TGI (MDA-MB-231 breast): > 66.1 µM; TGI (MDA-MB-435): 31 µM; TGI (MDA-N): 38.3 µM; TGI (MOLT-4 leukemia): 35.6 µM; TGI (NCI-H226 lung): > 60.2 µM; TGI (NCI-H23 lung): 58.3 µM; TGI (NCI-H460 lung): > 59.5 µM; TGI (NCI-H522 lung): 28.4 µM; TGI (NCI/ADR-RES ovarian): > 64.6 µM; TGI (OVCAR-3 ovarian): 19.5 µM; TGI (OVCAR-4 ovarian): 28.4 µM; TGI (OVCAR-5 ovarian): 50.7 µM; TGI (OVCAR-8 ovarian): 65.6 µM; TGI (PC-3 prostate): 49.2 µM; TGI (RPMI-8226 leukemia): 25.8 µM; TGI (RXF 393 renal): 24.3 µM; TGI (SF-268 CNS): 33 µM; TGI (SF-295 CNS): > 100 µM; TGI (SF-539 CNS): 42.2 µM; TGI (SK-MEL-2 melanoma): 58.6 µM; TGI (SK-MEL-28 melanoma): 48.7 µM; TGI (SK-MEL-5 melanoma): 35.5 µM; TGI (SK-OV-3 ovarian): > 100 µM; TGI (SN12C renal): 51.7 µM; TGI (SNB-19 CNS): > 100 µM; TGI (SNB-75 CNS): 34.4 µM; TGI (SR leukemia): 24.9 µM; TGI (SW-620 colon): 63.5 µM; TGI (T-47D breast): 42.6 µM; TGI (TK-10 renal): 32.9 µM; TGI (U251 CNS): > 65 µM; TGI (UACC-257 melanoma): 42.2 µM; TGI (UACC-62 melanoma): 32.3 µM; TGI (UO-31 renal): 29.6 µM
